In patent US11833139B2 (priority 2019, dated 2023):
Converted amounts (≈) assume the structure as drawn. Read-outs that look alike come from different tables or passages of the source.

Assays:
A. baumannii HUMC1 = assay: MIC by broth microdilution (CLSI), carbapenem-resistant clinical isolate HUMC1; type: cell-based, Acinetobacter baumannii; conditions: Acinetobacter baumannii, read-out: MIC
Method: (§1) Two A. baumannii isolates were used in this example: HUMC1 (BV374) (Spellberg/Luna Laboratory, University of Southern California, Los Angeles, Calif.) and UNT091-1 (BV378) (UNT Health Science Center, Fort Worth, Tex.). The HUMC1 isolate is a hyper-virulent drug-resistant clinical strain isolated from a blood-stream infection. […] The isolates were stored at −80° C. as 20% (v/v) glycerol cultures.
(§2) MICs were determined by the broth microdilution method following the guidelines of the Clinical Laboratory Standards Institute (CLSI) using RPMI supplemented with […] cationic-adjusted Muller Hinton broth (CA-MHB) as assay medium. To prepare the bacterial inocula, 3-5 colonies of bacterial strains from over-night growth on ChromAgar orientation plates (CHROMagar Cat. No. RT412) were suspended in 5 mL saline. The turbidity of the bacterial suspension was adjusted to 0.5 McFarland units (equal to an optical density at 610 nm (OD610) to 0.08-0.1). This suspension was diluted 200-fold in RPMI supplemented with 10% (v/v) FCS to reach a final concentration of […] colony forming units (CFU)/mL and was used to inoculate the microtiter plates.
(§3) Serial 2-fold dilutions of the antibiotics were prepared in a separate 96-well plate polypropylene U-bottom plate (Ratiolab Cat. No. 6018111) in RPMI supplemented with 10% (v/v) FCS at 10-fold of the final test concentrations and 10 μl of the dilutions were transferred to new 96-well polystyrene U-bottom microtiter plates with a parafilm plate cover.
(§4) The plates were then inoculated with 90 μL per well of the prepared bacterial suspensions in using a multichannel pipette (Eppendorf), with the first column containing 4 wells each for growth control (no antibiotic). […] The MIC was recorded as the lowest concentration of the compound that inhibited bacterial growth by visual inspection. MICs were determined at least in duplicates and in the case of variations, the higher values are provided.

A. baumannii UNT091 = assay: MIC by broth microdilution (CLSI), carbapenem-resistant clinical isolate UNT091; type: cell-based, Acinetobacter baumannii; conditions: Acinetobacter baumannii, read-out: MIC
Method: as §1, §2, §3, §4

A. baumannii ACC00445 = assay: Neutropenic sepsis mouse model (CD-1 mice, IP infection); type: in vivo; conditions: IV at 1 h and 5 h post-infection, 10 mg/kg
Text: The CD-1 mice were IP infected with A. baumannii ACC00445 strain in the presence of […].

[1] = HUMC1, HUMC1, RPMI plus 10% FCS (Table 1)
[2] = UNT091, UNT091, CA-MHB (Table 1)
[3] = UNT091, UNT091, RPMI plus 10% FCS (Table 1)

Row | Compound | MIC (A. baumannii HUMC1; HUMC1, HUMC1, CA-MHB (Table 1)) | MIC (A. baumannii HUMC1; [1]) | MIC (A. baumannii UNT091; [2]) | MIC (A. baumannii UNT091; [3]) | MIC (A. baumannii HUMC1; HUMC1, HUMC1 parental strain, RPMI + 10% FCS (Table 2)) | MIC (A. baumannii UNT091; UNT091, UNT091 parental strain, RPMI + 10% FCS (Table 2)) | protection against sepsis (A. baumannii ACC00445)
1 | C[C@@H](O)[C@H]1C(=O)N2C(C(=O)O)=C(S[C@@H]3CN[C@H](C(=O)N(C)C)C3)[C@H](C)[C@H]12 [meropenem] | > 16 µg/mL | > 16 µg/mL | > 16 µg/mL | > 16 µg/mL |  |  | 
2 | CO[C@H]1/C=C/O[C@@]2(C)Oc3c(C)c(O)c4c(O)c(c(/C=N/N5CCN(C)CC5)c(O)c4c3C2=O)NC(=O)/C(C)=C\C=C\[C@H](C)[C@H](O)[C@@H](C)[C@@H](O)[C@@H](C)[C@H](OC(C)=O)[C@@H]1C [rifampin] | 16 µg/mL (≈ 19.4 µM) | 16 µg/mL | 8 µg/mL (≈ 9.72 µM) | 16 µg/mL | 32 µg/mL | 2 µg/mL | does not
